Measured values as given in patent US10793566B2, “Bruton's tyrosine kinase inhibitors” (Zibo Biopolar Changsheng Pharmaceutical Co. Ltd., priority 2016, dated 2020).

Tests used:
[1] = system: Ramos cells; assay: Calcium flux assay, anti-IgM stimulated Ramos cells; format: cell-based; details: Homo sapiens, IgM-induced calcium influx, read-out: Ramos Ca Flux
Protocol: Calcium flux fluorescence-based assays were performed in aFDSS7000EX (Hamamatsu Photonics) fluorometric imaging plate reader according to manufacturer instructions. Compounds to be assayed were dissolved in DMSO, diluted to appropriate concentrations in Ca^2+ buffer ranging from 0 to 10 μM (at a dilution factor of 0.1), added 5 μl (6 X) to each well (the final DMSO concentration was 0.1% in each well). Then 12.5 μL 2× dye loading solution (Fluo-4 NW Calcium Assay Kits, Invitrogen) was added per well of a 384-well plate. Afterwards, actively growing Ramos cells (ATCC) in RPM1640 medium supplemented with 10% FBS (Invitrogen) were washed and re-plated in assay buffer (from Fluo-4 NW Calcium Assay Kits, Invitrogen) to approximately 6.4×10^6/ml (80000 cells/12.5 μL in 384-well plates). The plates were incubated at 37° C. for 30 minutes, then at room temperature for an additional 30 minutes. The plates were now ready to be used in an experiment. Immediately after the transfer and a 10-s recording of baseline fluorescence, the compound treated cells were stimulated with a goat anti-human IgM antibody ([…]; Jackson Immuno Research) and read in a FDSS for 240 seconds. Difference between the signal and that at baseline, designated adjusted relative fluorescence unit, was calculated by using a custom Excel (Microsoft, Redmond, Wash.) template to determine IgM-induced calcium influx and its inhibition by compounds. The table below show the result.

[2] = biological target: LYN (Homo sapiens (Human), UniProt P07948); assay: LYN kinase assay (HTRF); format: biochemical; details: [ATP]=20 μM, LYN=0.12 nM
Protocol: Btk Kinase Assay and Other Kinases Assay Btk kinase activity was determined using a homogenous time resolved fluorescence (HTRF) methodology. Measurements were performed in a reaction volume of 15 μL using 384-well assay plates. Kinase enzyme, inhibitor, ATP and 1 μM peptide substrate were incubated in a reaction buffer compose of Hepes50 mM (pH7.0), NaN3 0.02%, BSA 0.01%, Orthocanadate 0.1 mM. After one hour, the kinase reaction was quenched by the addition of E t-labeled antibody and XL-665 in 1×Detection buffer containing 60 mM EDTA (Cisbio), and the mixture was allowed to incubate for one hour. The HTRF signal was measured on a multimode plate reader (EnVision Multilabel Reader, Perkin Elmer) with an excitation wavelength (λEx) of 330 nm and detection wavelengths (λEm) of 615 and 665 nm. Activity was determined by the ratio of the fluorescence at 665 nm to that at 615 nm. For each compound, enzyme activity as measured at various concentrations of compound, Negative control reactions were performed in the absence of inhibitor in two replicates and eight no enzyme controls were used to determine baseline fluorescence levels. IC50s were obtained according to the equation: […] For LYN assay, [ATP]=20 μM, LYN=0.12 n M. For LCK assay, [ATP]=20 μM, LCK=0.2 nM. For BLK assay, [ATP]=20 μM, BLK=0.6 n M.

Sequence of LYN (P07948 whole entry, species assumed): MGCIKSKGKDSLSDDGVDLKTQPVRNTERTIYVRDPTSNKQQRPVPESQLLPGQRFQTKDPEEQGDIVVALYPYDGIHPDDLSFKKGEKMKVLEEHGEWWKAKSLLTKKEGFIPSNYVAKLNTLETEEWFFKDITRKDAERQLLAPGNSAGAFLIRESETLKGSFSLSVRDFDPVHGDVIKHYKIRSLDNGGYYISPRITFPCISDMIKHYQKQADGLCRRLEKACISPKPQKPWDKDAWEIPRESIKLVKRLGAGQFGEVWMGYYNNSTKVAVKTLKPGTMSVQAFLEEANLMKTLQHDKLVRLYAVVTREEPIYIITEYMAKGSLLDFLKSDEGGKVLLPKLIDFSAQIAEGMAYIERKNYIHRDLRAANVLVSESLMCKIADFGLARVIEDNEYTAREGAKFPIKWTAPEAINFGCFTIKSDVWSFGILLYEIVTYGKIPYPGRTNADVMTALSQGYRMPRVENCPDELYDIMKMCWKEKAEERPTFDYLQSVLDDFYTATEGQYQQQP

SMILES: C=CC(=O)N1CC[C@@H](n2nc(-c3ccc(Oc4ccccc4)cc3)c3cnccc32)C1 [Example 1, (R)-1-(3-(3-(4-phenoxyphenyl)-1H-pyrazolo[4,3-c]pyridin-1-yl)pyrrolidin-1-yl)prop-2-en-1-one]
- IC50 [1]: 10 to 100 nM
- IC50 [2]: ≥ 10000 nM
